Reference: article PMC6110851, “An Optimized MicroPET Imaging Method for the Distribution and Synergies of Natural Products” (Frontiers in Pharmacology, 2018)

Assays:
[1] = MicroPET biodistribution of [^18F]-GA in mice; type: in vivo
Experimental: The mice were grouped by weight and housed in cages of the climate control room (25°C), with a photoperiod 12:12-h. During feeding, mice were free to access food and water. Mice were fasted for 24 h before the experiment. The mice were anesthetized with 4% isoflurane while preparing for scanning ([Constantinescu et al., 2013b]; [Cui et al., 2017]). Eighteen healthy male Kunming mice, weighing 20 ± 2 g, were divided into three groups, which were control group, once-administered (OA) group and long-term administration (LA) group. In the OA group, 1 h before the administration of [^18F]-GA, the mice were orally treated with PG polysaccharides. In the LA group, the mice were orally given the PG polysaccharides for 7 days, but not before the administration of [^18F]-GA.
Rice received a tail vein injection (8.67 ± 2.14 MBq/μg) of [^18F]-GA and placed in the scanner bed and mouse-imaging room immediately ([Constantinescu et al., 2013b]; [O’Doherty et al., 2017]). Firstly, 2 h PET scanning was performed using an Inveon-dedicated PET scanner. The average delay between injection and starting of PET scanning was 3.5 min. Rice were maintained stable under 4% isoflurane anesthesia throughout scanning. The PET list-mode data were dynamically classified into 23 3D sinograms of span and three ring difference. After Fourier recombination, the data were reconstructed using a 2D ordered-subset expectation maximization algorithm. Random events were excluded before reconstruction. The response of detector is normalized using a component-based approach. All dynamic images were corrected for radioactive decay automatically. The PET images were reconstructed by a cone beam algorithm into 480 × 480 × 632 image arrays. After the reconstruction, images were spatially transformed to match the PET images ([Constantinescu et al., 2013a],[b]).
The reconstruction of the image was performed using the PMOD software (PMOD Technologies). The 3D volumes of interest (VOIs) were drawn manually of the following organs: brain, heart, liver, lungs, kidneys, cortical bone, and gallbladder. The organs were carefully identified and VOIs were drawn as irregular contours on high-resolution PET images obtained from each mouse ([Constantinescu et al., 2013b]; [Garg et al., 2017]). The size of each VOI was less than the actual size of each organ to minimize the effects of PET on adjacent organ spills. The VOIs drawing was verified by a second operator. The VOIs of cortical bone were generated by first using PET image to depict the entire femur bone ([Constantinescu et al., 2013b]). The VOI was transferred to a dynamic PET image and the mean time-activity curve (TAC) of the decay correction was extracted for each target organ ([Constantinescu et al., 2013b]).

NF-κB = NF-κB dual luciferase reporter assay in TNF-stimulated HEK 293 T cells; type: cell-based; details: 10 μmol/L, HEK 293T stimulated by TNF-α, P < 0.05
Experimental: The separation process was repeated five times for use in the activity tests. […] After 48 h, radioactive elements had decayed, the residues were stored at 4°C for anti-inflammatory activity tests ([Dong et al., 2013]; [Qingxin et al., 2016]).
HEK 293 T cells were cultured in standard Dulbecco’s modified Eagle’s medium (DMEM; Hyclone) supplemented with 10% fetal bovine serum (FBS; Biological Industries). The cells were placed in 96-well plates at 37°C in an air-CO2 environment (95/5% v/v). Cells were grown to 80–90% confluence and incubated for 12 h in DMEM without FBS. Transfection (20 h) was performed according to the manufacturer’s instructions. HEK 293 T cells were pretreated with drugs 1 h prior to TNF-stimulation (5 ng/mL) for 6 h. Dex (10^-5mol/L) was used as a positive control for NF-κB inhibition. The NF-κB activity was assayed using dual luciferase reporter assay system (Promega) according to the manufacturer’s instructions ([Qingxin et al., 2016]). Antiinflammatory activity was calculated as the ratio of firefly luciferase activity to Renilla luciferase activity (internal control).

| passage of the blood brain barrier ([1]; mice, concluded from brain concentrations) | concentration in the brain of the mouse ([1]; results obtained from PET) | SMILES | NF-κB inhibitory effect (NF-κB) |
| --- | --- | --- | --- |
| could not pass the blood brain barrier | very low, almost undetectable | CC1(C)[C@@H](O)CC[C@]2(C)[C@H]3C(=O)C=C4[C@@H]5C[C@@](C)(C(=O)O)CC[C@]5(C)CC[C@@]4(C)[C@]3(C)CC[C@@H]12 [GA, Glycyrrhetic acid, reference compound] |  |
|  |  | C[C@@H]1C[C@H]2[C@@H]3CCC4=CC(=O)C=C[C@]4(C)[C@@]3(F)[C@@H](O)C[C@]2(C)[C@@]1(O)C(=O)CO [Dex, reference compound] | significant NF-κB inhibitory effects |
